# Activity calls are given as the source filed them.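 Rule for the calls: active = compounds giving half or more protection of infected cells from virus-caused growth loss, again on retest; inactive = the rest.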
# Test system: CEM cells HIV-1 protection, formazan growth assay
# Assay: NCI AIDS Antiviral Assay
# Conditions: for IC50: measured here: growth of uninfected CEM cells
# Summary of the method: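 Screen of anti-HIV-1 activity in human CEM cells using a formazan-based growth measurement at five drug concentrations. Hits with 50% or greater protection were repeated, and confirmation required reproducible complete protection.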
Structure (SMILES),EC50,IC50,outcome
COc1cc2c(cc1OC)C(=O)/C(=C/c1ccc(N(C)C)cc1)CC2,> 155 µM,110 µM,
COc1cccc(/C(Cl)=C(\C=O)c2cccc(OC)c2)c1,> 17.4 µM,9.12 µM,
O=c1c(Cl)nsnc1Cl,> 490 µM,28.2 µM,
O=C1OC2CCCC[C@@H]2C2C[C@]34CCCCC3[C@@H](C(=O)O4)C12 (some centres not stated),> 23.4 µM,> 23.4 µM,
Cc1cc(C)c(C(=O)O)c(N)c1O,,,inactive
COc1cc(N=Nc2ccccc2C(=O)O)cc(/C=N/NC(=O)c2cccnc2)c1O,> 12.3 µM,> 12.3 µM,
Oc1ccc(SCc2cc(O)c(O)c(O)c2)cc1,> 200 µM,6.92 µM,
Cc1nn(C(=O)CC(=O)Nc2ccc(Cl)cc2)c(C)c1N=Nc1ccccc1C(=O)O,> 42.7 µM,> 42.7 µM,
CCOC(=O)N1CCN(c2nc(C)n(-c3ccccc3)c(=S)c2C#N)CC1,> 200 µM,> 200 µM,
CCC(C)C(NC(=O)C(CCCC(N)=O)NC(=O)CNC(=O)C(NC(=O)C(NC(=O)C(NC(=O)C(Cc1ccccc1)NC(=O)C(C)NC(=O)C(CCCNC(=N)N)NC(=O)CNC(=O)C1CCCN1C(=O)CNC(=O)C(CCCNC(=N)N)NC(=O)C(CCCC(N)=O)NC(=O)C(NC(=O)C(CCCNC(=N)N)NC(=O)C(NC(=O)C(COC1OC(CO)C(O)C(O)C1NC(C)=O)NC(=O)C(CCCCN)NC(=O)C(CCCNC(=N)N)NC(=O)C(NC(=O)C(CC(N)=O)NC(=O)C(N)CC(N)=O)C(C)O)C(C)CC)C(C)CC)C(C)C)C(C)O)C(C)CC)C(=O)NCC(N)=O (configuration not stated),> 50.1 µM,> 50.1 µM,
O=C([O-])c1n[nH]c([O-])c1N=Nc1ccc(/C=C/c2ccc(N=Nc3c(C(=O)[O-])n[nH]c3[O-])cc2S(=O)(=O)[O-])c(S(=O)(=O)[O-])c1.[Cu+2].[Cu+2].[Na+],> 50.1 µM,> 50.1 µM,
CC1(c2ccc(F)cc2)C2C(=O)NC(=O)C1C(=O)NC2=O (configuration not stated),> 871 µM,575 µM,
CCOC(=O)C(C1=C(O)c2ccccc2C(=O)C1=O)C1=C(O)c2ccccc2C(=O)C1=O,> 200 µM,67.6 µM,
Nc1cc(N)c(N=Nc2ccc(/C=C/c3ccc(N=Nc4c(N)cc(N)cc4C(=O)O)cc3S(=O)(=O)O)c(S(=O)(=O)O)c2)c(C(=O)O)c1,> 178 µM,170 µM,
COC(=O)CC1N=C(NC#N)N(CCc2c[nH]c3ccccc23)C1=O (configuration not stated),,,inactive
COC(=O)CC(C(C(=O)OCc1ccccc1)C(C)O)N1C(=O)OC(c2ccccc2)C1c1ccccc1 (configuration not stated),> 251 µM,> 251 µM,
CC(=O)CC(O)(C(F)(F)Cl)C(F)(Cl)Cl (configuration not stated),> 200 µM,> 200 µM,
O=C1CCSc2nc(-c3ccc4c(c3)OCO4)nn21,> 200 µM,> 200 µM,
COc1ccc2c(c1OC)C(=O)O[C@@H]2C1c2cc3c(cc2CCN1C)OCO3 (some centres not stated),> 245 µM,> 245 µM,

Structure (SMILES),EC50,IC50,outcome
CC1CCC(=NNS(=O)(=O)c2ccc(N)cc2)CC1 (configuration not stated),> 129 µM,> 129 µM,
Cc1cc(C)nc(NS(=O)(=O)c2ccc(NNC(=O)c3cccc4c(=O)c5ccccc5[nH]c34)cc2)n1,> 200 µM,31.6 µM,
c1ccc2c3c([nH]c2c1)C1CCCN1CC3 (configuration not stated),> 617 µM,174 µM,
CC(C)CCC[C@@H](C)[C@H]1CC[C@H]2[C@@H]3CC=C4CC(OC(=O)OC5CCC6(C)CC7C=CC6(OO7)C5(C)C)CC[C@]4(C)[C@H]3CC[C@]12C (some centres not stated),> 100 µM,> 100 µM,
CC(C)=CCC[C@@H](C)C1=C(N)C(O)=C(C)C(=O)C1=O,> 200 µM,13.5 µM,
CC1(C)N=C(N)N=C(N)N1c1cccc(N)c1.[Sn],,,inactive
O=c1cc(-c2ccccc2)nc(-n2[nH]c3c(c2=O)CCCC3)[nH]1,> 50.1 µM,1.29 µM,
COc1ccc2c(c1)C(=O)C1(C2)[C@H](c2ccccc2)C2C(=O)c3cc(OC)ccc3C2[C@H]1c1ccccc1 (some centres not stated),> 200 µM,138 µM,
COC1(OC)C2(Cl)C(Cl)=C(Cl)C1(Cl)C1C2C2CC1(C(=O)O)c1ccccc12 (configuration not stated),> 251 µM,13.5 µM,
Oc1[nH]c2ccccc2c1N=Nc1nc(-c2ccccc2)cs1,> 200 µM,> 200 µM,
COc1ccc2nc3cc(Cl)ccc3c(NCCNCCCNC(=O)c3cc(-c4ccccc4)nc4ccccc34)c2c1,> 20 µM,1.12 µM,
O=C(O)C1=C(C(=O)Nc2ccccc2)C2C=CC1C2 (configuration not stated),> 977 µM,214 µM,
CCOC(=O)/C(C#N)=C1/C(O)=C(C(=O)OC)C(C(=O)OC)=C1C(=O)OC,,,inactive
COc1ccc([C@H]2Oc3cc(O)cc(O)c3C(=O)[C@@H]2[C@H]2C(=O)c3c(O)cc(OC)cc3O[C@@H]2c2ccc(OC)cc2)cc1,> 200 µM,110 µM,
COC(=O)[C@@](NC(=O)OCc1ccccc1)([C@H](C)O)C(F)(F)F,> 200 µM,110 µM,
O=C1C2C(C(=O)N1O)N(Cc1ccccc1)C(=O)N2Cc1ccccc1 (configuration not stated),> 708 µM,> 708 µM,
CCOP(=O)(O)C(Nc1ccc(N=Nc2ccccc2)cc1)c1cccc(C(Nc2ccc(N=Nc3ccccc3)cc2)P(=O)(O)OCC)c1 (configuration not stated),> 200 µM,35.5 µM,
Cc1c(Cc2ccc(Cl)cc2)c(=O)[nH]c(=O)n1C,> 97.7 µM,> 97.7 µM,
COc1ccc(/C=c2\[nH]c3nc(=O)c(N4CCCCC4)c(N)n3c2=O)cc1,> 200 µM,120 µM,

# — PubChem BioAssay AID179 (DTP/NCI, 2004)
